US20250026747A1, “COLIBACTIN DERIVATIVES AND METHODS OF TREATING, AMELIORATING, AND/OR PREVENTING CANCER” (priority 2021, published 2025)

Tests used:
[1] = Stability of colibactin 770 in aqueous buffer (LC-MS time course); assay type: physicochemical
Description: FIG. 9 depicts the percentage of colibactin 770 (M+Na) over time at pH 7.4, 37° C. according to some embodiments. Specifically, the linear precursor to colibactin 770 (nominally 404 nmol), prepared according to Xu et al. (Science 2019, 365) was dissolved in DMSO (100 μL) and the resulting solution was diluted with PBS buffer (400 μL) at 22° C. This solution was immediately warmed to 37° C. in a preheated water bath. Aliquots (15 μL) were taken at 0 min, 5 min, 10 min, 15 min, 30 min, 60 min, 120 min, 180 min, 240 min, 300 min, and 480 min. Each aliquot was dissolved in acetonitrile (150 μL) and then immediately frozen in liquid nitrogen. The frozen aliquots were stored at −78° C. until the time course was complete. Aliquots were quickly thawed and analyzed using a Shimadzu Scientific Instruments QToF 9030 LC-MS system, equipped with a Nexera LC-40D xs UHPLC, consisting of a CBM-40 Lite system controller, a DGU-405 Degasser Unit, two LC-40D XS UHPLC pumps, a SIL-40C XS autosampler and a Column Oven CTO-40S. UV data was collected with a Shimadzu Nexera HPLC/UHPLC Photodiode Array Detector SPD M-40 in the range of 190-800 nm. Mass spectra were recorded with the quadrupole time-of-flight (QToF) 9030 mass spectrometer. The samples were held at 4° C. in the autosampler compartment. […]

[2] = test system: linearized pUC19 DNA; assay: DNA cross-linking assay with linearized pUC19 DNA, denaturing agarose gel electrophoresis; assay type: biochemical; details: linearized pUC19 DNA, pH 7.0, 1 nM-100 μM
Description: FIGS. 6A-6C depict the DNA crosslinking ability of several compounds according to some embodiments. The DNA cross-linking assays employ linear pUC19 DNA. DMSO was used as vehicle (negative control), and 100 μM cisplatin was used as positive controls. The DNA was analyzed by 0.4% NaOH denaturing and agarose gel electrophoresis (90 V, 1.5 h). FIG. 6A depicts the DNA cross-linking comparison of colibactin 770 (3a), stable colibactin 742 (4), and its linear precursor 9 at pH 5.0. FIG. 6B depicts the comparison of the relative DNA cross-linking abilities of colibactin 742 (4) and its linear precursor 9 at pH 5.0. FIG. 6C depicts the comparison of the relative DNA cross-linking abilities of colibactin 742 (4) and its linear precursor 9 at pH 7.0.
FIG. 10 depicts the DNA cross-linking assay employing linear pUC19 DNA and synthetic colibactin (3), 9, and colibactin 742 (4) according to some embodiments. Specifically, 5% DMSO was used as vehicle (negative control), and 100 μM cisplatin was used as positive control. DNA ladder (Lane #1); 5% DMSO (Lane #2); 100 μM cisplatin (Lane #3); 200 μM colibactin (3) (Lane #4); 100 μM colibactin (3) (Lane #5); 10 μM colibactin (3) (Lane #6); 1 μM colibactin (3) (Lane #7); 200 μM 9 (Lane #8); 100 μM 9 (Lane #9); 10 μM 9 (Lane #10); 1 μM 9 (Lane #11); 200 μM colibactin 742 (4) (Lane #12); 100 μM colibactin 742 (4) (Lane #13); 10 μM colibactin 742 (4) (Lane #14); 1 μM colibactin 742 (4) (Lane #15). Conditions (Lane #3): linearized pUC19 DNA (15.4 μM in base pairs), 5% DMSO (vehicle), 100 μM cisplatin, 10 mM citric buffer, pH 5.0, 4 h, 37° C. Conditions (Lanes #4-#7): linearized pUC19 DNA (15.4 μM in base pairs), colibactin (3) (200 μM-1 μM), 5% DMSO, 10 mM citric buffer, pH 5.0, 4 h, 37° C. Conditions (Lanes #8-#11): linearized pUC19 DNA (15.4 μM in base pairs), 9 (200 μM-1 μM), 5% DMSO, 10 mM citric buffer, pH 5.0, 4 h, 37° C. Conditions (Lanes #12-#15): linearized pUC19 DNA (15.4 μM in base pairs), colibactin 742 (4) (200 μM-1 μM), 5% DMSO, 10 mM citric buffer, pH 5.0, 4 h, 37° C. The DNA was analyzed by native, 0.2% NaOH, 0.4% NaOH, and 1% NaOH denaturing agarose gel electrophoresis (90 V, 1.5 h). Linear=linearized DNA in native form, linear-denat.=linearized DNA in denaturing form, linear-XL=linerized DNA cross-linked by colibactins or cisplatin.
FIG. 11 depicts the DNA cross-linking assay employing linear pUC19 DNA and synthetic colibactin fragments 23, 24, and 22. Specifically, 5% DMSO was used as vehicle (negative control), and 100 μM cisplatin was used as positive control. DNA ladder (Lane #1); 5% DMSO (Lane #2); 100 μM cisplatin (Lane #3); 500 μM 23 (Lane #4); 100 μM 23 (Lane #5); 10 μM 23 (Lane #6); 1 μM 23 (Lane #7); 100 nm 23 (Lane #8); 500 μM 24 (Lane #9); 100 μM 24 (Lane #10); 10 μM 24 (Lane #11); 1 μM 24 (Lane #12); 100 nm 24 (Lane #13); 500 μM 22 (Lane #14); 100 μM 22 (Lane #15); 10 μM 22 (Lane #16); 1 μM 22 (Lane #17); 100 nm 22 (Lane #18). Conditions (Lane #2): linearized pUC19 DNA (15.4 μM in base pairs), 5% DMSO (vehicle), 10 mM citric buffer, pH 5.0, 4 h, 37° C. Conditions (Lane #3): linearized pUC19 DNA (15.4 μM in base pairs), 5% DMSO (vehicle), 100 μM cisplatin, 10 mM citric buffer, pH 5.0, 4 h, 37° C. Conditions (Lanes #4-#8): linearized pUC19 DNA (15.4 μM in base pairs), 23 (500 μM-100 nM), 5% DMSO, 10 mM citric buffer, pH 5.0, 4 h, 37° C. Conditions (Lanes #9-#13): linearized pUC19 DNA (15.4 μM in base pairs), 24 (500 μM-1 μM), 5% DMSO, 10 mM citric buffer, pH 5.0, 4 h, 37° C. Conditions (Lanes #14-#18): linearized pUC19 DNA (15.4 μM in base pairs), 22 (500 μM-100 nM), 5% DMSO, 10 mM citric buffer, pH 5.0, 4 h, 37° C. The DNA was analyzed by native, 0.2% NaOH, 0.4% NaOH, and 1% NaOH denaturing agarose gel electrophoresis (90 V, 1.5 h). Linear=linearized DNA in native form, linear-denat.=linearized DNA in denaturing form, linear-XL=DSB/linerized DNA cross-linked by colibactins or cisplatin. […]

[3] = test system: eukaryotic cells; assay: Genotoxicity of synthetic colibactin 770 in eukaryotic cells; assay type: cell-based; details: eukaryotic cells treated with the synthetic compound

With `C[C@H]1CCC(C2=C(CC(=O)NCC(=O)c3csc(C(=O)C(=O)c4csc(CNC(=O)CC5=C(C6=N[C@@H](C)CC6)C(=O)NC56CC6)n4)n3)C3(CC3)NC2=O)=N1` [colibactin 770 (3a)] the “stability at pH 7.0” value ([1]; pH 7.0) was “readily decomposes”, the “time to degradation in aqueous buffer” value ([1]; pH 7.4, 37° C.) was no more than 2 h and the “DNA interstrand cross-link (ICL) formation” value [2] was “fails to produce detectable levels of ICLs”. The genotoxicity [3] was “no genotoxicity was observed”.
